# Data from patent US11896564B2, “Medical treatment for pathologic inflammation” (PHARMACYL AB, priority 2018, dated 2024).
# Structures can show the parent of a compound that is named as a salt.
# Assays:
# [1] = test system: LPS-induced TNF-α production in RAW264.7 murine macrophage cells; assay: Suppression of LPS-induced TNF-α production in RAW264.7 macrophages (ELISA); format: cell-based; conditions: Mus musculus; 1 mM test substance; LPS 1 μg/ml; RAW264.7 cells
# Description: UC is an inflammatory disease characterized by the infiltration of inflammatory cells, such as macrophages, into the lesioned colon. Macrophages serve a critical role in the initiation and propagation of inflammatory responses by releasing proinflammatory mediators, such as TNF-α. Lipopolysaccharide (LPS) is a potent initiator of an inflammatory response. During LPS stimulation, NF-κB signaling is activated to regulate the transcription of numerous genes involved in immunity and inflammation to produce proinflammatory cytokines, such as TNF-α. Suppression of LPS-induced TNF-α production in RAW264.7 macrophages treated with AABZ was investigated by evaluation of the generation of TNF-α. The aim of this study was to evaluate the anti-inflammatory activity of AABZ.
# The RAW264.7 macrophage line was maintained in DMEM supplemented with 5% FBS at 37° C. in a 5% […] air environment. The RAW264.7 cells were seeded in 96-well plates at a density of 1×10^5/ml and a volume of 200 μl/well. […] The supernatants were subsequently harvested at various time points and production of the proinflammatory cytokine TNF-α in the culture medium was determined using a commercially available enzyme-linked immunosorbent assay (ELISA) kit according to the manufacturer's protocol. […]
# [2] = test system: DSS-induced acute colitis in Balb/c mice; assay: Dextran sulfate sodium (DSS)-induced acute colitis, disease activity index; format: in vivo; conditions: day 5
# Description: The experiment was performed using 6-8-week-old female Balb/c mice after a one-week acclimatization period. The mice weighed 18-25 g, were purchased from Taconic (Denmark) and were maintained in a temperature and light-controlled facility with free access to standard rodent chow and water. Mice were randomized to the respective groups five days before start of treatment and were kept 5 to 6 animals per cage. […] The DSS intake was assessed daily.
# SASP (from Sigma-Aldrich, Sweden) was first dissolved in 0.2 M sodium hydroxide (NaOH) at a concentration higher than the required final concentration. Phosphate buffered saline (PBS) was added to the desired concentration and the pH was adjusted to 7.5-8.0 with NaOH or hydrochloric acid. SASP remained completely dissolved at this pH. Cpd A hydrochloride was dissolved in PBS to the desired concentration.
# All animal groups had free access to 5% DSS water solution for the entire test period. Treatments were administered from day 0 to day 5, either orally by gavage (SASP) or intraperitoneally (Cpd A), and in an administration volume of 5 ml/kg, twice daily with approximately an 8-hour interval. The control group (DSS only) received water (0.2 ml) orally twice daily. The parameters recorded in the experiment were stool consistency (0, normal; 2, loose stools; 4, watery diarrhoea), occurrence of blood in the stool (0, normal; 2, Hemoccult+; 4, gross bleeding), and body weight loss (0, none; 1, 1-5%; 2, 5-10%; 3, 10-20%; 4, >20%). Disease activity index (DAI) was calculated by summarizing the scores of these three parameters. Also the colon length and the colonic content of myeloperoxidase (MPO) were recorded. Data was statistically evaluated with analysis of variance (ANOVA). Least-squares means (LS means), and standard error (SE) of LS means were calculated.
smiles,measurement,setting,value
CCN(CC)CCNC(=O)c1ccc(NC(C)=O)cc1 [4-Acetamido-N-[2-(diethylamino)ethyl]benzamide hydrochloride],inhibition at 1000 µM,[1],56%
"CCN(CC)CCNC(=O)c1ccc(NC(C)=O)c(Cl)c1 [Cpd A, 4-Acetamido-3-chloro-N-[2-(diethylamino)ethyl]benzamide hydrochloride]",Percent Reduction of Score (Disease Activity Index) vs control,[2]; Cpd A 50 mg/kg/day bid ip,7%
"O=C(O)c1cc(/N=N/c2ccc(S(=O)(=O)Nc3ccccn3)cc2)ccc1O [SASP, sulfasalazine]",Disease Activity Index LS means ± SE,[2]; SASP 20 mg/kg/day bid po,6.4 ± 0.5
same,Percent Reduction of Score (Disease Activity Index) vs control,[2]; SASP 20 mg/kg/day bid po,8%
same,Percent Reduction of Score (Disease Activity Index) vs control,[2]; SASP 40 mg/kg/day bid po,36%
